Measurements from patent US8293256B2, “Sulfamide derivatives and cosmetic use thereof” (L'Oreal, priority 2004, dated 2012).

What was measured:
stratum corneum [1] = experiment: Dermometer: mechanical measurement of the plasticizing effect (modulus of elasticity); details: 30° C., 75% relative humidity, 3% aqueous solution (compounds 9 and 15 in isopropyl N-lauroyl sarcosinate), mean ± standard deviation, 6 to 10 samples
Description: (§1) Two tests were performed to evaluate the moisturizing potential of the compounds of the invention formulated in an aqueous 3% solution (except for compounds 9 and 15, which were evaluated in a solution of isopropyl N-lauroyl sarcosinate).
Dermometer, mechanical measurement of the plasticizing effect (described by J. de Rigal, J-L. Leveque, International Journal of Cosmetic Science, 1982, 247-260),
The tests carried out were performed under standard conditions on stratum corneum in a room with regulated temperature and humidity (T=30° C. and RH=75%). The modulus of elasticity measurements are performed on each control specimen and then 2 hours and 20 hours after application of the treatment. The relative variation in the modulus allows assessment of the plasticizing effect of the active agent on the stratum corneum.
The mean and the standard deviation were calculated on 6 to 10 samples.

stratum corneum [2] = experiment: Transepidermal Water Loss (TWL) across isolated defatted stratum corneum (Evaporimeter EP1); details: 40% relative humidity, 30° C., 3% aqueous solution (compounds 9 and 15 in isopropyl N-lauroyl sarcosinate), mean ± standard deviation, 8 samples
Description: as §1
Transepidermal Water Loss (TWL), evaluation of the changes in barrier function of the stratum corneum.
Transepidermal water loss is a physiological phenomenon of diffusion of water vapour across the horny layer. It results from the presence of a high pressure gradient of water vapour between the internal and external media of the body. The TWL depends on the integrity of the barrier function of the stratum corneum. The machine evaluating the TWL (Evaporimeter EP1, Servomed) measures the flow of water that diffuses passively across the stratum corneum (g/m^2/h).
The isolated stratum is placed (inner face) on a water tank and equilibrated in a room regulated at 40% relative humidity (T=30° C.). Before the measurement, the stratum corneum is defatted via a two-hour treatment in a mixture of chloroform and methanol (2 v/lv). For each measurement, the TWL is measured on the stratum corneum before treatment and then 2 and 20 hours after application of the treatment. […] The measurements are analysed in pairs. […]
The mean and the standard deviation were calculated on 8 samples distributed over 2 batches of stratum corneum.

Compound	melting point [°C]	Relative variation in the modulus of elasticity of stratum corneum (stratum corneum [1]; 2 h after application) [%]	Relative variation in the modulus of elasticity of stratum corneum (stratum corneum [1]; 20 h after application) [%]	Relative variation of the TWL measurements (stratum corneum [2]; 2 h after application) [%]	Relative variation of the TWL measurements (stratum corneum [2]; 20 h after application) [%]
C[Si](C)(C)C(NS(N)(=O)=O)[Si](C)(C)C	76 to 77.5				
NS(=O)(=O)NCCOS(N)(=O)=O [Compound 17, 2-[(aminosulfonyl)amino]ethyl sulfamate]	78 to 82				
NC(N)=O [3% urea in water, urea]		−72 ± 9	−83 ± 7	64.3 ± 26.9	48.3 ± 24.5
